The values below come from ChEMBL document CHEMBL1145658, “Catharanthus alkaloids XXXVII. 16-Epi-Z-isositsirikine, a monomeric indole alkaloid with antineoplastic activity from Catharanthus roseus and Rhazya stricta” (1983).

SMILES strings stand for the structures. Converted amounts (≈) assume the structure as drawn.

One test has as its system KB. In words: Cytotoxicity against human KB cells. In kind it is functional. Conditions: read-out: ED50 (the source's name).
Another test has as its system P388. Briefly: In vivo antitumor activity against mouse P388 cells at 2.5 to 10 mg/kg relative to control. In kind it is functional. Conditions: dose mg/kg 2.5-10.

Turning to `C/C=C1\CN2CCc3c([nH]c4ccccc34)[C@@H]2C[C@@H]1[C@@H](CO)C(=O)OC`, in the test with KB, the EC50 was 1.2 µg/mL (≈ 3.39 µM). The T/C result in the test with P388 is listed as “>=150%”.
